Experimental data reported in US12655116B2, “Substituted isophthalic acid diamides” (Bayer Aktiengesellschaft, priority 2020, dated 2026).

Legend:
AMARE [1] = test: Pre-emergence herbicidal action against AMARE; assay type: in vivo, Amaranthus retroflexus
How it was run: (§1)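 Pre-emergence soil-surface spray of formulated compound (WP or EC; 600 to 800 l/ha; 0.2% wetting agent) over seeds sown in sandy loam. After 3 weeks under greenhouse conditions, damage is estimated visually in percent against untreated plants.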

ALOMY = test: Pre-emergence herbicidal action against ALOMY; assay type: in vivo, Alopecurus myosuroides; details: pre-emergence
How it was run: as §1

MATIN [2] = test: Pre-emergence herbicidal action against MATIN; assay type: in vivo, Matricaria inodora
How it was run: as §1

DIGSA [3] = test: Pre-emergence herbicidal action against DIGSA; assay type: in vivo, Digitaria sanguinalis
How it was run: as §1

ECHCG [4] = test: Post-emergence herbicidal action against ECHCG; assay type: in vivo, Echinochloa crus-galli; details: dosage 20 g/ha
How it was run: (§2)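 Spray, one-leaf stage: WP or EC compound in water, 600–800 l/ha, 0.2% wetting agent. Plants held about 3 weeks in the greenhouse, then visually rated in percent of kill compared with untreated controls.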

VERPE [5] = test: Post-emergence herbicidal action against VERPE; assay type: in vivo, Veronica persica
How it was run: as §2

PHBPU [6] = test: Pre-emergence herbicidal action against PHBPU; assay type: in vivo, Pharbitis purpurea; details: dosage 80 g/ha
Description: Seeds of monocotyledonous and dicotyledonous weed plants and crop plants are laid out in sandy loam soil in wood-fiber pots and covered with soil. The compounds of the invention, formulated in the form of wettable powders (WP) or as emulsion concentrates (EC), are then applied to the surface of the covering soil in the form of an aqueous suspension or emulsion at a water application rate equivalent to 600 to 800 l/ha, with addition of 0.2% wetting agent. After the treatment, the pots are placed in a greenhouse and kept under good growth conditions for the trial plants. The damage to the test plants is scored visually after a test period of 3 weeks by comparison with untreated controls (herbicidal activity in percent (%): 100% activity=the plants have died, 0% activity=like control plants). […] The tables below illustrate, in an illustrative manner, the post-emergence herbicidal action of the compounds of the invention, the herbicidal activity being stated in percent.

VIOTR [7] = test: Pre-emergence herbicidal action against VIOTR; assay type: in vivo, Viola tricolor
How it was run: as §1

AVEFA = test: Pre-emergence herbicidal action against AVEFA; assay type: in vivo, Avena fatua; details: Avena fatua, 504 h; 80 g/ha, pre-emergence
How it was run: as §1

AMARE [8] = test: Post-emergence herbicidal action against AMARE; assay type: in vivo, Amaranthus retroflexus; details: 20 g/ha, visual assessment about 3 weeks after treatment, 100% = plants have died, 0% = like control plants
How it was run: as §2

ECHCG [9] = test: Pre-emergence herbicidal action against ECHCG; assay type: in vivo, Echinochloa crus-galli; details: 80 g/ha
How it was run: as §1

PHBPU [10] = test: Post-emergence herbicidal action against PHBPU; assay type: in vivo, Pharbitis purpurea
How it was run: as §2

ABUTH [11] = test: Pre-emergence herbicidal action against ABUTH; assay type: in vivo, Abutilon theophrasti
How it was run: as §1

SETVI [12] = test: Pre-emergence herbicidal action against SETVI; assay type: in vivo, Setaria viridis
How it was run: as §1

VERPE [13] = test: Pre-emergence herbicidal action against VERPE; assay type: in vivo, Veronica persica
How it was run: as §1

MATIN [14] = test: Post-emergence herbicidal action against MATIN; assay type: in vivo, Matricaria inodora
How it was run: as §2

ABUTH [15] = test: Post-emergence herbicidal action against ABUTH; assay type: in vivo, Abutilon theophrasti; details: visual assessment about 3 weeks after treatment vs untreated controls
How it was run: as §2

SETVI [16] = test: Post-emergence herbicidal action against SETVI; assay type: in vivo, Setaria viridis; details: dosage 20 g/ha
How it was run: as §2

VIOTR [17] = test: Post-emergence herbicidal action against VIOTR; assay type: in vivo, Viola tricolor; details: 20 g/ha
How it was run: as §2

DIGSA [18] = test: Post-emergence herbicidal action against DIGSA; assay type: in vivo, Digitaria sanguinalis
How it was run: as §2

[19] = 20 g/ha, scored visually after 3 weeks vs untreated controls, 100% = plants have died, 0% = like control plants
[20] = 80 g/ha, scored visually after 3 weeks vs untreated controls (100% = plants have died, 0% = like control plants)

Cc1nnc(NC(=O)c2ccc(C(F)(F)F)c(C(=O)NCC(F)(F)F)c2Cl)o1 [Example 6-120]
100%: pest or weed control at 20 g/ha (AMARE [1]; Amaranthus retroflexus, 504 h, 20 g/ha, scored visually after 3 weeks vs untreated controls, 100% = plants have died, 0% = like control plants) | pest or weed control at 80 g/ha (AMARE [1]; Amaranthus retroflexus, 504 h, 80 g/ha, scored visually after 3 weeks vs untreated controls, 100% = plants have died, 0% = like control plants) | pest or weed control at 80 g/ha (ECHCG [9]; Echinochloa crus-galli, 504 h) | pest or weed control at 80 g/ha (ABUTH [11]; Abutilon theophrasti, 504 h, 80 g/ha, scored visually after 3 weeks vs untreated controls (100% = plants have died, 0% = like control plants)) | pest or weed control at 80 g/ha (SETVI [12]; Setaria viridis, 504 h, dosage 80 g/ha)
80%: pest or weed control at 20 g/ha (ALOMY; Alopecurus myosuroides, 504 h, 20 g/ha, scored visually after 3 weeks, 100% = plants have died, 0% = like control plants) | pest or weed control at 20 g/ha (VERPE [5]; Veronica persica, 504 h, 20 g/ha) | pest or weed control at 80 g/ha (PHBPU [6]; Ipomoea purpurea, 504 h) | pest or weed control at 20 g/ha (ABUTH [11]; Abutilon theophrasti, 504 h, dosage 20 g/ha, scored visually after 3 weeks vs untreated controls, 100% = plants have died, 0% = like control plants, read-out: Pre-emergence action against ABUTH (herbicidal activity in percent))
90%: pest or weed control at 80 g/ha (ALOMY; Alopecurus myosuroides, 504 h, 80 g/ha, scored visually after 3 weeks vs untreated controls (100% = plants have died, 0% = like control plants)) | pest or weed control at 20 g/ha (MATIN [2]; Tripleurospermum inodorum, 504 h, dosage 20 g/ha) | pest or weed control at 80 g/ha (MATIN [2]; Tripleurospermum inodorum, 504 h, dosage 80 g/ha) | pest or weed control at 80 g/ha (DIGSA [3]; Digitaria sanguinalis, 504 h, dosage 80 g/ha) | pest or weed control at 20 g/ha (ECHCG [4]; Echinochloa crus-galli, 504 h) | pest or weed control at 80 g/ha (VIOTR [7]; Viola tricolor, 504 h, dosage 80 g/ha) | pest or weed control at 80 g/ha (AVEFA) | pest or weed control at 20 g/ha (AMARE [8]; Amaranthus retroflexus, 504 h) | pest or weed control at 20 g/ha (PHBPU [10]; Ipomoea purpurea, 504 h, dosage 20 g/ha)

CCn1nnnc1NC(=O)c1ccc(C(F)(F)F)c(C(=O)NCC2CCCO2)c1C (stereo not shown) [Example 2-37]
100%: Pre-emergence action against AMARE in % (AMARE [1]; [20]) | Pre-emergence action against DIGSA in % (DIGSA [3]; dosage 80 g/ha) | Pre-emergence action against VIOTR in % (VIOTR [7]; dosage 80 g/ha) | Pre-emergence action against SETVI in % (SETVI [12]; dosage 80 g/ha)
90%: Pre-emergence action against AMARE in % (AMARE [1]; [19]) | Pre-emergence action against ALOMY (herbicidal activity) (ALOMY; [20])
80%: Pre-emergence action against VERPE in % (VERPE [13]; dosage 20 g/ha) | Pre-emergence action against VERPE in % (VERPE [13]; dosage 80 g/ha) | Post-emergence action against ECHCG in % (ECHCG [4]) | Post-emergence action against VERPE in % (VERPE [5]; 20 g/ha) | Pre-emergence action against PHBPU in % (PHBPU [6]) | Pre-emergence action against ECHCG in % (ECHCG [9])

CCn1nnnc1NC(=O)c1ccc(C(F)(F)F)c(C(=O)NC)c1C1CC1 [Example 2-286]
90%: Post-emergence action against MATIN in % (MATIN [14]; dosage 5 g/ha) | Post-emergence action against MATIN in % (MATIN [14]; dosage 20 g/ha) | Post-emergence action against ABUTH in % (ABUTH [15]; dosage 5 g/ha) | Post-emergence action against ABUTH in % (ABUTH [15]; dosage 20 g/ha) | Pre-emergence action against PHBPU in % (PHBPU [6]) | Pre-emergence action against VIOTR in % (VIOTR [7]; dosage 20 g/ha) | Post-emergence action against DIGSA in % (DIGSA [18]; 5 g/ha) | Post-emergence action against DIGSA (DIGSA [18]; 20 g/ha) | Pre-emergence action against ECHCG in % (ECHCG [9]) | Post-emergence action against PHBPU in % (PHBPU [10]; dosage 5 g/ha) | Post-emergence action against PHBPU in % (PHBPU [10]; dosage 20 g/ha)
100%: Pre-emergence action against AMARE in % (AMARE [1]; [19]) | Pre-emergence action against AMARE in % (AMARE [1]; [20]) | Pre-emergence action against MATIN in % (MATIN [2]; dosage 20 g/ha) | Pre-emergence action against MATIN in % (MATIN [2]; dosage 80 g/ha) | Pre-emergence action against VERPE in % (VERPE [13]; dosage 80 g/ha) | Pre-emergence action against DIGSA in % (DIGSA [3]; dosage 20 g/ha) | Pre-emergence action against DIGSA in % (DIGSA [3]; dosage 80 g/ha) | Post-emergence action against ECHCG in % (ECHCG [4]) | Pre-emergence action against VIOTR in % (VIOTR [7]; dosage 80 g/ha) | Post-emergence action at 20 g/ha against AMARE in % (AMARE [8]) | Pre-emergence action against ABUTH (herbicidal activity) (ABUTH [11]; [20]) | Pre-emergence action against ABUTH (herbicidal activity in percent) (ABUTH [11]; dosage 20 g/ha, scored visually after 3 weeks vs untreated controls, 100% = plants have died, 0% = like control plants) | Pre-emergence action against SETVI in % (SETVI [12]; dosage 80 g/ha)
80%: Pre-emergence action against ALOMY (herbicidal activity) (ALOMY; [20]) | Pre-emergence action against VERPE in % (VERPE [13]; dosage 20 g/ha) | Post-emergence action against VERPE in % (VERPE [5]; 5 g/ha) | Post-emergence action against VERPE in % (VERPE [5]; 20 g/ha) | Post-emergence action against SETVI in % (SETVI [16]) | Post-emergence action against VIOTR in % (VIOTR [17]) | Pre-emergence action against SETVI in % (SETVI [12]; dosage 20 g/ha)
